How the values were obtained:
S.aureus ATCC 25923 = test: MIC by agar incorporation method, S.aureus 25923; assay type: cell-based, Staphylococus aureus; design: unit not given here; conditions: Mueller Hinton agar, 10^4 CFU/spot, 18 hours
MRSA 15187 = test: MIC by agar incorporation method, MRSA 15187; assay type: cell-based, Methicillin Resistant Staphylococcus aureus; design: unit not given here; conditions: Mueller Hinton agar, 10^4 CFU/spot, 24 hours
Text: 2) MRSA 15187—Methicillin Resistant Staphylococcus aureus

MRSA 562 = test: MIC by agar incorporation method, MRSA 562; assay type: cell-based, Methicillin Resistant Staphylococcus aureus; design: unit not given here; conditions: Mueller Hinton agar, 10^4 CFU/spot, 24 hours
MRSA 33 = test: MIC by agar incorporation method, MRSA 33; assay type: cell-based, Methicillin Resistant Staphylococcus aureus; design: unit not given here; conditions: Mueller Hinton agar, 10^4 CFU/spot, 24 hours
Ent. faecalis ATCC 29212 = test: MIC by agar incorporation method, E.faecalis 29212; assay type: cell-based, Enterococcus faecalis; design: unit not given here; conditions: Mueller Hinton agar, 10^4 CFU/spot, 18 hours
Text: 3) Ent. faecalis ATCC 29212—Enterococcus faecalis ATCC 29212

VRE 6A = test: MIC by agar incorporation method, VRE 6A; assay type: cell-based, Enterococcus faecium; design: unit not given here; conditions: Mueller Hinton agar, 10^4 CFU/spot, 18 hours
Text: 4) Ent. faecium […]—Enterococcus faecium 6A Van®, Cipro®

Strep.pyog. ATCC 19615 = test: MIC by agar incorporation method, S.pyogenes 19615; assay type: cell-based, Streptococcus pyogenes; design: unit not given here; conditions: Mueller Hinton agar, 10^4 CFU/spot, 18 hours
Text: 6) Strep.pyog. ATCC 19615—Streptococcus pyogenes

Strep. pne. ATCC 6303 = test: MIC by agar incorporation method, S. pneum 6303; assay type: cell-based, Streptococcus pneumoniae; conditions: Mueller Hinton agar, 10^4 CFU/spot, 18 hours
Text: 5) Strep. pne. ATCC 6303—Streptococcus pneumoniae ATCC 6303

S. pneum AB 34 = test: MIC by agar incorporation method, S. pneum AB 34; assay type: cell-based, Streptococcus pneumoniae; design: unit not given here; conditions: Mueller Hinton agar, 10^4 CFU/spot, 18 hours

In Vitro (MIC) S.aureus 25923 (S.aureus ATCC 25923)	In Vitro (MIC) MRSA 15187 (MRSA 15187)	In Vitro (MIC) MRSA 562 (MRSA 562)	In Vitro (MIC) MRSA 33 (MRSA 33)	In Vitro (MIC) E.faecalis 29212 (Ent. faecalis ATCC 29212)	In Vitro (MIC) VRE 6A (VRE 6A)	In Vitro (MIC) S.pyogenes 19615 (Strep.pyog. ATCC 19615)	In Vitro (MIC) S. pneum 6303 (Strep. pne. ATCC 6303)	In Vitro (MIC) S. pneum AB 34 (S. pneum AB 34)	SMILES
0.5	0.5	0.5	0.5	2	2	0.5	4 µg/mL	4	CCN(C(=O)c1ccc([N+](=O)[O-])s1)C1CCN(c2ccc(N3C[C@H](CNC(C)=O)OC3=O)cc2F)CC1 [Compound No. 79, (S)-N-[[3-[3-Fluoro-4-[4-{N-ethyl-2-thienoyl-(5-nitro)}aminopiperidine-1-yl]phenyl]-2-oxo-5-oxazolidinyl]methyl]acetamide]
1	1	0.5	1	1	1	2	4 µg/mL	4	CCN(C(=O)c1ccc([N+](=O)[O-])o1)C1CCN(c2ccc(N3C[C@H](CNC(C)=O)OC3=O)cc2F)CC1 [Compound No. 80, (S)-N-[[3-[3-Fluoro-4-[4-{N-ethyl-2-furoyl-(5-nitro)}aminopiperidine-1-yl]phenyl]-2-oxo-5-oxazolidinyl]methyl]acetamide]
4	4	4	4	4	4	8	8 µg/mL	8	CCN(Cc1ccc([N+](=O)[O-])s1)C1CCN(c2ccc(N3C[C@H](CNC(C)=O)OC3=O)cc2F)CC1 [Compound No. 83, (S)-N-[[3-[3-Fluoro-4-[4-{N-ethyl-N-2-thiophenyl-(5-nitro)methyl}-aminopiperidine-1-yl]phenyl]-2-oxo-5-oxazolidinyl]methyl]acetamide]
2	2	2	2	1	2	1	2 µg/mL	2	CC(=O)NC[C@H]1CN(c2ccc(N3CCC(NCc4ccc([N+](=O)[O-])s4)CC3)c(F)c2)C(=O)O1 [Compound No. 84, (S)-N-[[3-[3-Fluoro-4-[4-{N-thienyl-(5-nitro)methyl}-aminopiperidine-1-yl]phenyl]-2-oxo-5-oxazolidinyl]methyl]acetamide]
4	4	4	4	>8	>8	2	4 µg/mL	4	CC(=O)NC[C@H]1CN(c2ccc(N3CCC(N=Cc4ccc([N+](=O)[O-])o4)CC3)c(F)c2)C(=O)O1 [Compound No. 85, (S)-N-[[3-[3-Fluoro-4-[4-{2-furyl-(5-nitro)methylene]-aminopiperidine-1-yl]phenyl]-2-oxo-5-oxazolidinyl]methyl]acetamide]
1	1	1	1	0.5	0.5	<0.25	2 µg/mL	2	CC(=O)NC[C@H]1CN(c2ccc(N3CCC(NCc4ccc([N+](=O)[O-])o4)CC3)c(F)c2)C(=O)O1 [Compound No. 86, (S)-N-[[3-[3-Fluoro-4-[4-{N-2-furyl-(5-nitro)methyl}-aminopiperidine-1-yl]phenyl]-2-oxo-5-oxazolidinyl]methyl]acetamide]
